Measured values published in the supplement of paper PMC10307832.

Assays:
Assay in all cases: relative viability (nuclei count vs DMSO), 5 days (fraction); higher = more cells survive
[1] = compound: C1CC(C1)(C(=O)O)C(=O)O.[NH2-].[NH2-].[Pt+2] [Carboplatin] + Cc1nc(NC(=O)N2CCC[C@H]2C(N)=O)sc1-c1ccnc(C(C)(C)C(F)(F)F)c1 [Alpelisib] (partner 2 µM)
In short: (§1)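 Relative viability divides the nuclei count in treated wells by that in vehicle wells. Lung cancer cell lines were seeded in 1536-well plates, dosed by pin tool the next day, and fixed and stained after 5 days in one step with final 0.05% Triton X-100, 1% formaldehyde and 1 ug/ml Hoechst. Dosing was a single drug or a fixed anchor-drug dose plus five library-drug doses (not always all listed) in √10 steps, and values are medians of duplicate plates imaged at 4×.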

[2] = compound: NS(=O)(=O)OC[C@@H]1C[C@@H](n2ccc3c(N[C@H]4CCc5ccccc54)ncnc32)C[C@@H]1O [MLN4924] + CS(=O)(=O)N1CCN(Cc2cc3nc(-c4cccc5[nH]ncc45)nc(N4CCOCC4)c3s2)CC1 [Pictilisib] (partner 1 µM)
In short: as §1

[3] = compound: CC[C@H](C)N1C=C(C2=C(C=C(C=C21)C3=CN=C(C=C3)N4CCNCC4)C(=O)NCC5=C(C=C(NC5=O)C)C)C [GSK126] + Nc1ncn([C@H]2C[C@H](O)[C@@H](CO)O2)c(=O)n1 [Decitabine] (partner 2 µM)
In short: as §1

[4] = compound: NS(=O)(=O)OC[C@@H]1C[C@@H](n2ccc3c(N[C@H]4CCc5ccccc54)ncnc32)C[C@@H]1O [MLN4924] + N=C(N)NC(=N)NCCc1ccccc1 [Phenformin] (partner 250 µM)
In short: as §1

Row | Cell Line | relative viability ([1]; first compound 0.08 µM) | relative viability ([1]; first compound 0.253 µM) | relative viability ([1]; first compound 0.8 µM) | relative viability ([1]; first compound 2.53 µM) | relative viability ([1]; first compound 8 µM) | relative viability ([2]; first compound 0.04 µM) | relative viability ([2]; first compound 0.1265 µM) | relative viability ([2]; first compound 0.4 µM) | relative viability ([2]; first compound 1.265 µM) | relative viability ([2]; first compound 4 µM) | relative viability ([3]; first compound 0.08 µM) | relative viability ([3]; first compound 0.253 µM) | relative viability ([3]; first compound 0.8 µM) | relative viability ([3]; first compound 2.53 µM) | relative viability ([3]; first compound 8 µM) | relative viability ([4]; first compound 0.04 µM) | relative viability ([4]; first compound 0.1265 µM) | relative viability ([4]; first compound 0.4 µM) | relative viability ([4]; first compound 1.265 µM) | relative viability ([4]; first compound 4 µM)
1 | NCI-H2009 | 1.3 | 1.11 | 1.15 | 0.973 | 0.695 | 0.456 | 0.159 | 0.236 | 0.0505 | 0.0867 | 0.372 | 0.334 | 0.45 | 0.403 | 0.381 | 0.24 | 0.184 | 0.156 | 0.0904 | 0.0791
2 | LK-2 | 1.41 | 1.23 | 0.837 | 0.961 | 1.09 | 0.511 | 0.503 | 0.566 | 0.254 | 0.262 | 0.42 | 0.239 | 0.333 | 0.273 | 0.31 | 0.312 | 0.31 | 0.262 | 0.167 | 0.173
3 | HCC-827 | 1.07 | 0.962 | 0.9 | 0.944 | 0.893 | 1.12 | 0.641 | 0.808 | 0.382 | 0.311 | 0.396 | 0.368 | 0.313 | 0.325 | 0.323 | 0.453 | 0.462 | 0.316 | 0.144 | 0.136
4 | NCI-H322M | 0.74 | 0.574 | 0.605 | 0.739 | 0.701 | 0.556 | 0.855 | 0.669 | 0.291 | 0.333 | 0.656 | 0.676 | 0.758 | 0.733 | 0.754 | 0.908 | 0.65 | 0.473 | 0.248 | 0.306
5 | NCI-H727 | 0.76 | 0.483 | 0.509 | 0.514 | 0.363 | 0.4 | 0.311 | 0.268 | 0.291 | 0.244 | 1.01 | 1.03 | 0.804 | 0.89 | 0.864 | 0.827 | 0.438 | 0.278 | 0.292 | 0.33
6 | NCI-H1944 | 0.98 | 0.857 | 0.813 | 0.701 | 0.643 | 0.405 | 0.38 | 0.376 | 0.182 | 0.178 | 0.526 | 0.413 | 0.419 | 0.433 | 0.411 | 0.22 | 0.187 | 0.173 | 0.112 | 0.122
7 | BEN | 1.11 | 1.04 | 0.891 | 0.798 | 0.909 | 0.566 | 0.398 | 0.254 | 0.163 | 0.155 | 0.834 | 0.658 | 0.78 | 0.901 | 0.744 | 0.214 | 0.185 | 0.218 | 0.183 | 0.145
8 | NCI-H2170 | 0.882 | 0.852 | 0.801 | 0.794 | 0.636 | 0.36 | 0.37 | 0.217 | 0.135 | 0.171 | 0.517 | 0.467 | 0.44 | 0.467 | 0.444 | 0.359 | 0.305 | 0.214 | 0.183 | 0.185
9 | NCI-H1792 | 0.802 | 0.634 | 0.515 | 0.444 | 0.6 | 0.375 | 0.387 | 0.34 | 0.147 | 0.122 | 0.716 | 0.546 | 0.498 | 0.412 | 0.575 | 0.403 | 0.324 | 0.725 | 0.258 | 0.217
10 | NCI-H2085 | 0.998 | 1.05 | 0.907 | 0.882 | 0.756 | 0.479 | 0.719 | 0.594 | 0.457 | 0.42 | 0.551 | 0.511 | 0.588 | 0.615 | 0.518 | 0.754 | 0.676 | 0.598 | 0.443 | 0.348
11 | LCLC-103H | 1.1 | 0.975 | 1.09 | 1 | 0.934 | 0.757 | 0.697 | 0.788 | 0.238 | 0.233 | 0.795 | 0.855 | 0.797 | 0.737 | 0.759 | 0.358 | 0.368 | 0.347 | 0.157 | 0.143
12 | EKVX | 0.908 | 0.877 | 0.743 | 0.783 | 0.87 | 0.533 | 0.513 | 0.363 | 0.135 | 0.135 | 0.343 | 0.383 | 0.39 | 0.351 | 0.301 | 0.228 | 0.221 | 0.239 | 0.175 | 0.138
13 | 201T | 1.07 | 1.07 | 1.04 | 1.01 | 0.926 | 0.783 | 0.837 | 0.833 | 0.425 | 0.366 | 0.865 | 0.899 | 0.916 | 0.86 | 0.946 | 0.553 | 0.555 | 0.43 | 0.278 | 0.327
14 | NCI-H2023 | 0.65 | 0.546 | 0.601 | 0.397 | 0.193 | 0.315 | 0.145 | 0.101 | 0.0651 | 0.0705 | 0.267 | 0.232 | 0.205 | 0.209 | 0.219 | 0.392 | 0.393 | 0.175 | 0.0707 | 0.0769
